Reference: patent US20100331348A1, “TROPANE DERIVATIVES USEFUL AS PESTICIDES” (SYNGENTA CROP PROTECTION, INC., priority 2007, published 2010)
Read-outs that look alike come from different tables or passages of the source.

Columns and labels:
Plasmopara viticola = Plasmopara viticola (downy mildew of grapevine) leaf disk assay; assay type: in vivo; conditions: foliar, 168 h, preventive, seven days after inoculation, read-out: control of fungal infection, Plasmopara viticola
Myzus persicae = Myzus persicae (Green peach aphid) sunflower leaf disc test; conditions: foliar, 144 h, read-out: control of Myzus persicae
Phytophthora infestans = assay: whole plant or invertebrate; assay type: in vivo; conditions: foliar, 96 h, read-out: control of fungal infection, Phytophthora infestans
Tetranychus urticae = conditions: foliar, 192 h, read-out: control of Tetranychus urticae
[1] = test system: Puccinia recondita f.sp. tritici; assay: Puccinia recondita f.sp. tritici (wheat brown rust) leaf disk assay; assay type: in vivo; conditions: foliar, 216 h, preventive, nine days after inoculation, read-out: control of fungal infection, Puccinia recondita f.sp. tritici
[2] = test system: Erysiphe graminis f.sp. tritici; assay: Erysiphe graminis f.sp. tritici (wheat powdery mildew) leaf disk assay; assay type: in vivo; conditions: Blumeria graminis, foliar, 96 h, preventive, four days after inoculation, read-out: control of fungal infection, Erysiphe graminis fsp. tritici
Pythium ultimum = Pythium ultimum (Damping off) growth inhibition in potato dextrose broth; assay type: cell-based; conditions: Globisporangium ultimum, 48 hours, read-out: control of fungal infection, Pythium ultimum
Pyricularia oryzae = assay: whole plant or invertebrate; assay type: in vivo; conditions: foliar, 96 h
Heliothis virescens = Heliothis virescens (Tobacco budworm) egg test on artificial diet; conditions: 96 h, read-out: control of Heliothis virescens
Aedes aegypti = Aedes aegypti (Yellow fever mosquito) larvae test; assay type: in vivo; conditions: 48 h
Plutella xylostella = Plutella xylostella (Diamond back moth) artificial diet test; conditions: 120 h, read-out: control of Plutella xylostella
[3] = read-out: control of fungal infection, Pyricularia oryzae (at least 60% list)
[4] = read-out: control of fungal infection, Pyricularia oryzae (at least 80% list)

| SMILES | pest or weed control at 200 ppm (Plasmopara viticola) [%] | pest or weed control at 200 ppm (Myzus persicae) [%] | pest or weed control at 200 ppm (Phytophthora infestans) [%] | pest or weed control at 200 ppm (Tetranychus urticae) [%] | pest or weed control at 200 ppm [1] [%] | pest or weed control at 200 ppm [2] [%] | inhibition of growth at 200 ppm (Pythium ultimum) [%] | melting point [°C] | pest or weed control at 200 ppm (Pyricularia oryzae; [3]) [%] | pest or weed control at 200 ppm (Heliothis virescens) [%] | pest or weed control at 2 ppm (Aedes aegypti) [%] | pest or weed control at 200 ppm (Plutella xylostella) [%] | pest or weed control at 200 ppm (Pyricularia oryzae; [4]) [%] |
| --- | --- | --- | --- | --- | --- | --- | --- | --- | --- | --- | --- | --- | --- |
| CC(C)(C)c1ccc(OC2C[C@H]3CC[C@@H](C2)N3c2ncnc3sccc23)cc1 (stereo partly shown) [Example 1.25] | ≥ 80 | ≥ 80 | ≥ 80 | ≥ 80 | – | – | – | – | – | – | – | – | – |
| CCc1ncnc(N2[C@@H]3CC[C@H]2CC(Oc2ccc(CCC(C)=O)cc2)C3)c1Cl (stereo partly shown) [Example 1.213] | – | ≥ 80 | – | ≥ 80 | ≥ 80 | ≥ 80 | – | – | – | – | – | – | – |
| Cc1ccc(OC2C[C@H]3CC[C@@H](C2)N3c2ccnc3c2c(C)nn3C)cn1 (stereo partly shown) [Example 2.164] | – | – | – | – | – | ≥ 80 | ≥ 60 | 153 | – | – | – | – | – |
| Fc1cccc2c(N3[C@@H]4CC[C@H]3CC(Oc3cccc(C(F)(F)F)n3)C4)ccnc12 (stereo partly shown) [Example 2.172] | – | – | – | – | – | – | ≥ 60 | 133 | – | – | – | – | – |
| FC(F)(F)c1cccc(OC2C[C@H]3CC[C@@H](C2)N3c2ccnc3cc(Cl)ccc23)n1 (stereo partly shown) [Example 2.174] | – | – | – | – | – | – | ≥ 60 | 177 | – | – | – | – | – |
| FC(F)(F)c1cccc(OC2C[C@H]3CC[C@@H](C2)N3c2ccnc3c(Cl)cccc23)n1 (stereo partly shown) [Example 2.175] | – | – | ≥ 80 | – | – | – | ≥ 60 | 116 | ≥ 60 | – | – | – | – |
| Fc1cccc2c(N3[C@@H]4CC[C@H]3CC(Oc3cc(C(F)(F)F)ccn3)C4)ccnc12 (stereo partly shown) [Example 2.185] | – | – | ≥ 80 | – | – | ≥ 80 | ≥ 60 | – | ≥ 60 | – | – | – | – |
| Fc1cccc2c(N3[C@@H]4CC[C@H]3CC(Oc3ccc(C(F)(F)F)cn3)C4)ccnc12 (stereo partly shown) [Example 2.201] | – | – | ≥ 80 | ≥ 80 | ≥ 80 | ≥ 80 | ≥ 60 | – | ≥ 60 | ≥ 80 | ≥ 80 | ≥ 80 | – |
| CCc1ncnc(N2C3CCC2CC(=NOCc2ccncc2)C3)c1Cl [Example 5.6] | – | – | ≥ 80 | ≥ 80 | ≥ 80 | – | ≥ 60 | – | – | – | ≥ 80 | – | – |
| CCc1ncnc(N2C3CCC2CC(=NOCc2ccc(C)cc2)C3)c1Cl [Example 5.7] | – | ≥ 80 | ≥ 80 | – | ≥ 80 | ≥ 80 | – | – | – | – | ≥ 80 | ≥ 80 | – |
| CCc1ncnc(N2C3CCC2CC(=NOCc2ccccn2)C3)c1Cl [Example 5.41] | – | – | ≥ 80 | – | ≥ 80 | ≥ 80 | ≥ 60 | – | – | ≥ 80 | ≥ 80 | – | – |
| CCc1ncnc(N2C3CCC2CC(=NOCc2ccc(C(F)(F)F)cc2)C3)c1Cl [Example 5.43] | – | ≥ 80 | – | ≥ 80 | ≥ 80 | ≥ 80 | – | – | – | – | – | ≥ 80 | ≥ 80 |
| CCc1ncnc(N2C3CCC2CC(=NOCc2ccccc2F)C3)c1Cl [Example 5.54] | – | ≥ 80 | – | ≥ 80 | ≥ 80 | ≥ 80 | – | – | – | – | ≥ 80 | ≥ 80 | – |
| CCc1ncnc(N2C3CCC2CC(=NOCc2ccc(F)cc2Cl)C3)c1Cl [Example 5.76] | – | ≥ 80 | – | – | ≥ 80 | – | – | – | ≥ 60 | – | ≥ 80 | ≥ 80 | – |
| CCc1ncnc(N2C3CCC2CC(=NOCc2c(F)ccc(F)c2F)C3)c1Cl [Example 5.82] | – | ≥ 80 | ≥ 80 | – | ≥ 80 | ≥ 80 | – | – | ≥ 60 | – | ≥ 80 | ≥ 80 | – |
| CCc1ncnc(N2C3CCC2CC(=NOCc2cc(OC)nc(N)n2)C3)c1Cl [Example 5.91] | – | – | ≥ 80 | – | ≥ 80 | ≥ 80 | ≥ 60 | – | – | – | – | – | – |
| CCc1ncnc(N2C3CCC2CC(=NOCc2csc(C)n2)C3)c1Cl [Example 5.98] | – | – | – | – | ≥ 80 | ≥ 80 | ≥ 60 | – | – | – | ≥ 80 | – | – |
| CCc1ncnc(N2C3CCC2CC(=NOCc2ccc(S(C)(=O)=O)cc2)C3)c1Cl [Example 5.106] | – | – | ≥ 80 | ≥ 80 | ≥ 80 | ≥ 80 | ≥ 60 | – | – | – | – | – | – |
| CCc1ncnc(N2C3CCC2CC(=NOCc2cc4c(cc2Cl)OCO4)C3)c1Cl [Example 5.114] | ≥ 80 | ≥ 80 | – | – | ≥ 80 | ≥ 80 | – | – | – | – | ≥ 80 | – | – |
| c1ccc(CON=C2CC3CCC(C2)N3c2ncnc3sccc23)cc1 [Example 5.138] | ≥ 80 | – | ≥ 80 | ≥ 80 | ≥ 80 | ≥ 80 | ≥ 60 | – | ≥ 60 | ≥ 80 | ≥ 80 | ≥ 80 | – |
| c1ccc(CON=C2CC3CCC(C2)N3c2ncnc3sccc23)nc1 [Example 5.149] | – | – | – | – | ≥ 80 | ≥ 80 | ≥ 60 | – | – | – | ≥ 80 | – | ≥ 80 |
| Clc1ccc(CON=C2CC3CCC(C2)N3c2ncnc3sccc23)c(Cl)c1 [Example 5.152] | – | ≥ 80 | – | – | ≥ 80 | ≥ 80 | – | – | ≥ 60 | ≥ 80 | ≥ 80 | ≥ 80 | – |
| COc1ccc(CON=C2CC3CCC(C2)N3c2ncnc3sccc23)cc1 [Example 5.165] | – | – | ≥ 80 | – | – | ≥ 80 | ≥ 60 | – | – | – | – | – | – |
| Fc1ccc(CON=C2CC3CCC(C2)N3c2ncnc3sccc23)cc1 [Example 5.166] | ≥ 80 | ≥ 80 | ≥ 80 | – | ≥ 80 | ≥ 80 | – | – | ≥ 60 | – | ≥ 80 | ≥ 80 | ≥ 80 |
| Cc1ccc(CON=C2CC3CCC(C2)N3c2ncnc3sccc23)c(C)c1 [Example 5.190] | ≥ 80 | ≥ 80 | ≥ 80 | – | ≥ 80 | ≥ 80 | – | – | – | – | ≥ 80 | ≥ 80 | – |
| Fc1cc(F)cc(CON=C2CC3CCC(C2)N3c2ncnc3sccc23)c1 [Example 5.205] | – | – | ≥ 80 | – | ≥ 80 | ≥ 80 | ≥ 60 | – | – | – | – | – | ≥ 80 |
| Fc1cccc(CON=C2CC3CCC(C2)N3c2ncnc3sccc23)c1F [Example 5.219] | – | – | ≥ 80 | – | ≥ 80 | ≥ 80 | ≥ 60 | – | ≥ 60 | – | ≥ 80 | ≥ 80 | ≥ 80 |
| Cc1nc(CON=C2CC3CCC(C2)N3c2ncnc3sccc23)no1 [Example 5.245] | – | ≥ 80 | – | – | ≥ 80 | ≥ 80 | – | – | – | ≥ 80 | ≥ 80 | ≥ 80 | ≥ 80 |
| CS(=O)(=O)c1ccc(CON=C2CC3CCC(C2)N3c2ncnc3sccc23)cc1 [Example 5.248] | – | – | ≥ 80 | ≥ 80 | ≥ 80 | ≥ 80 | ≥ 60 | – | – | – | – | – | – |
| Cc1csc(CC2CC3CCC(C2)N3c2ncnc3sccc23)n1 (stereo not shown) [Example 7.16] | – | – | – | – | ≥ 80 | – | ≥ 60 | 132 | – | – | – | – | – |
